Assay results from patent publication US9695155B2, “Herbicidal substituted pyrimidinyloxy benzene compounds” (E. I. DU PONT DE NEMOURS AND COMPANY, priority 2013, dated 2017).

Assays:
velvetleaf = experiment: Test C postemergence; assay type: in vivo, Abutilon theophrasti; settings: Abutilon theophrasti, post-emergence
Procedure, shortened: (§1)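 Injury was assessed visually against controls 13 to 15 days after application, with 0 meaning no effect and 100 full control; missing entries are shown as a dash. Preemergence sprays hit seeded loam–sand soil, postemergence sprays hit 1- to 4-leaf plants.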

pigweed [1] = experiment: Test C preemergence; assay type: in vivo, Amaranthus retroflexus; settings: Amaranthus retroflexus, pre-emergence
Procedure, shortened: as §1

corn = experiment: Test A postemergence; assay type: in vivo, Zea mays; settings: Zea mays, post-emergence, 240 h
Procedure, shortened: (§2)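 Compounds in non-phytotoxic solvent with surfactant applied as soil spray preemergence, or postemergence to plants 2-10 cm at one- to two-leaf stage, in loam/sand. After approximately 10 days in greenhouse, injury rated visually versus untreated controls, 0 (no effect) to 100 (complete control).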

Italian ryegrass = experiment: Test C postemergence; assay type: in vivo, Lolium multiflorum; settings: Lolium multiflorum, post-emergence
Procedure, shortened: as §1

yellow nutsedge = experiment: Test C preemergence; assay type: in vivo, Cyperus esculentus; settings: Cyperus, pre-emergence
Procedure, shortened: as §1

kochia = experiment: Test C postemergence; assay type: in vivo, Kochia scoparia; settings: Bassia scoparia, post-emergence
Procedure, shortened: as §1

chickweed = experiment: Test C postemergence; assay type: in vivo, Stellaria media; settings: Stellaria media, post-emergence
Procedure, shortened: as §1

morningglory = experiment: Test A postemergence; assay type: in vivo, Ipomoea spp.; settings: Ipomoea, post-emergence, 240 h
Procedure, shortened: as §2

large (Lg) crabgrass [2] = experiment: Test C preemergence; assay type: in vivo, Digitaria sanguinalis; settings: Digitaria sanguinalis, pre-emergence
Procedure, shortened: as §1

waterhemp = experiment: Test C preemergence; assay type: in vivo, Amaranthus rudis; settings: Amaranthus tuberculatus, pre-emergence
Procedure, shortened: as §1

pigweed [3] = experiment: Test C postemergence; assay type: in vivo, Amaranthus retroflexus; settings: Amaranthus retroflexus, post-emergence
Procedure, shortened: as §1

large (Lg) crabgrass [4] = experiment: Test A postemergence; assay type: in vivo, Digitaria sanguinalis; settings: Digitaria sanguinalis, post-emergence, 240 h
Procedure, shortened: as §2

giant foxtail = experiment: Test A postemergence; assay type: in vivo, Setaria faberii; settings: Setaria faberi, post-emergence, 240 h
Procedure, shortened: as §2

Q: N#Cc1cccc(Oc2ncc(Cl)cn2)c1-n1cc(Br)cn1 [Compound 52, 2-(4-bromo-1H-pyrazol-1-yl)-3-[(5-chloro-2-pyrimidinyl)oxy]benzonitrile] was tested. Which pest or weed control at 125 g/ha (velvetleaf; 125 g ai/ha, postemergence, read-out: Plant response rating (0 to 100), Velvetleaf) did it give?
A: 70%

Q: What about the pest or weed control at 250 g/ha (velvetleaf; 250 g ai/ha, postemergence, read-out: Plant response rating (0 to 100), Velvetleaf) of the same compound?
A: 90%

Q: And the pest or weed control at 31 g/ha (velvetleaf; Postemergence, 31 g ai/ha, scale 0 to 100 (0 no effect, 100 complete control), 13 to 15 days, read-out: Plant response rating, Velvetleaf)?
A: 50%

Q: What about the pest or weed control at 62 g/ha (velvetleaf; Postemergence, 62 g ai/ha, scale 0 to 100 (0 no effect, 100 complete control), read-out: Plant response rating, Velvetleaf) of the same compound?
A: 60%

Q: And the pest or weed control at 62 g/ha (pigweed [1]; 62 g ai/ha, preemergence, scale 0 (no effect) to 100 (complete control), read-out: Pigweed plant response rating)?
A: 100%

Q: What about the pest or weed control at 125 g/ha (pigweed [1]; 125 g ai/ha, preemergence, scale 0 (no effect) to 100 (complete control), read-out: Pigweed plant response rating) of the same compound?
A: 100%

Q: And the pest or weed control at 250 g/ha (pigweed [1]; 250 g ai/ha, preemergence, scale 0 (no effect) to 100 (complete control), read-out: Pigweed plant response rating)?
A: 100%

Q: And the pest or weed control at 31 g/ha (pigweed [1]; Preemergence, 31 g ai/ha, scale 0 to 100, 0 no effect, 100 complete control, read-out: Plant response rating, Pigweed)?
A: 100%

Q: And the Corn plant response rating (crop injury, 0 = no effect, 100 = complete kill) at 125 g/ha (corn; 125 g ai/ha, 0 to 100 scale where 0 is no effect and 100 is complete control)?
A: 90%

Q: And the plant injury at 500 g/ha (corn; 500 g ai/ha, 0 to 100 scale, 0 no effect, 100 complete control, read-out: Plant response rating Corn)?
A: 90%

Q: What about the pest or weed control at 125 g/ha (Italian ryegrass; 125 g ai/ha, postemergence, read-out: Plant response rating (0 to 100), Ryegrass, Italian) of the same compound?
A: 10%

Q: What about the pest or weed control at 250 g/ha (Italian ryegrass; 250 g ai/ha, postemergence, read-out: Plant response rating (0 to 100), Ryegrass, Italian) of the same compound?
A: 10%

Q: What about the pest or weed control at 31 g/ha (Italian ryegrass; Postemergence, 31 g ai/ha, scale 0 to 100 (0 no effect, 100 complete control), 13 to 15 days, read-out: Plant response rating, Ryegrass, Italian) of the same compound?
A: 0%

Q: What about the pest or weed control at 62 g/ha (Italian ryegrass; Postemergence, 62 g ai/ha, scale 0 to 100 (0 no effect, 100 complete control), read-out: Plant response rating, Ryegrass, Italian) of the same compound?
A: 5%

Q: And the pest or weed control at 62 g/ha (yellow nutsedge; 62 g ai/ha, preemergence, scale 0 (no effect) to 100 (complete control), read-out: Nutsedge, Yellow plant response rating)?
A: 10%

Q: What about the pest or weed control at 125 g/ha (yellow nutsedge; 125 g ai/ha, preemergence, scale 0 (no effect) to 100 (complete control), read-out: Nutsedge, Yellow plant response rating) of the same compound?
A: 40%

Q: What about the pest or weed control at 250 g/ha (yellow nutsedge; 250 g ai/ha, preemergence, scale 0 (no effect) to 100 (complete control), read-out: Nutsedge, Yellow plant response rating) of the same compound?
A: 45%

Q: What about the pest or weed control at 31 g/ha (yellow nutsedge; Preemergence, 31 g ai/ha, scale 0 to 100, 0 no effect, 100 complete control, read-out: Plant response rating, Nutsedge, Yellow) of the same compound?
A: 0%

Q: What about the pest or weed control at 125 g/ha (kochia; 125 g ai/ha, postemergence, read-out: Plant response rating (0 to 100), Kochia) of the same compound?
A: 90%

Q: And the pest or weed control at 250 g/ha (kochia; 250 g ai/ha, postemergence, read-out: Plant response rating (0 to 100), Kochia)?
A: 95%

Q: What about the pest or weed control at 31 g/ha (kochia; Postemergence, 31 g ai/ha, scale 0 to 100 (0 no effect, 100 complete control), 13 to 15 days, read-out: Plant response rating, Kochia) of the same compound?
A: 75%

Q: What about the pest or weed control at 62 g/ha (kochia; Postemergence, 62 g ai/ha, scale 0 to 100 (0 no effect, 100 complete control), read-out: Plant response rating, Kochia) of the same compound?
A: 90%

Q: And the pest or weed control at 125 g/ha (chickweed; 125 g ai/ha, postemergence, read-out: Plant response rating (0 to 100), Chickweed)?
A: 90%

Q: And the pest or weed control at 250 g/ha (chickweed; 250 g ai/ha, postemergence, read-out: Plant response rating (0 to 100), Chickweed)?
A: 95%

Q: And the pest or weed control at 31 g/ha (chickweed; Postemergence, 31 g ai/ha, scale 0 to 100 (0 no effect, 100 complete control), 13 to 15 days, read-out: Plant response rating, Chickweed)?
A: 40%

Q: And the pest or weed control at 62 g/ha (chickweed; Postemergence, 62 g ai/ha, scale 0 to 100 (0 no effect, 100 complete control), read-out: Plant response rating, Chickweed)?
A: 60%

Q: And the pest or weed control at 125 g/ha (morningglory; 125 g ai/ha, 0 to 100 scale where 0 is no effect and 100 is complete control, read-out: Plant response rating, Morningglory)?
A: 100%

Q: What about the pest or weed control at 500 g/ha (morningglory; 500 g ai/ha, 0 to 100 scale, 0 no effect, 100 complete control, read-out: Plant response rating Morningglory) of the same compound?
A: 100%

Q: What about the pest or weed control at 62 g/ha (large (Lg) crabgrass [2]; 62 g ai/ha, preemergence, scale 0 (no effect) to 100 (complete control), read-out: Crabgrass, Large plant response rating) of the same compound?
A: 100%

Q: And the pest or weed control at 125 g/ha (large (Lg) crabgrass [2]; 125 g ai/ha, preemergence, scale 0 (no effect) to 100 (complete control), read-out: Crabgrass, Large plant response rating)?
A: 100%

Q: And the pest or weed control at 250 g/ha (large (Lg) crabgrass [2]; 250 g ai/ha, preemergence, scale 0 (no effect) to 100 (complete control), read-out: Crabgrass, Large plant response rating)?
A: 100%

Q: And the pest or weed control at 31 g/ha (large (Lg) crabgrass [2]; Preemergence, 31 g ai/ha, scale 0 to 100, 0 no effect, 100 complete control, read-out: Plant response rating, Crabgrass, Large)?
A: 100%

Q: And the pest or weed control at 62 g/ha (waterhemp; 62 g ai/ha, preemergence, scale 0 (no effect) to 100 (complete control), read-out: Waterhemp plant response rating)?
A: 100%

Q: What about the pest or weed control at 125 g/ha (waterhemp; 125 g ai/ha, preemergence, scale 0 (no effect) to 100 (complete control), read-out: Waterhemp plant response rating) of the same compound?
A: 100%

Q: What about the pest or weed control at 250 g/ha (waterhemp; 250 g ai/ha, preemergence, scale 0 (no effect) to 100 (complete control), read-out: Waterhemp plant response rating) of the same compound?
A: 100%

Q: What about the pest or weed control at 31 g/ha (waterhemp; Preemergence, 31 g ai/ha, scale 0 to 100, 0 no effect, 100 complete control, read-out: Plant response rating, Waterhemp) of the same compound?
A: 100%

Q: And the pest or weed control at 125 g/ha (pigweed [3]; 125 g ai/ha, postemergence, read-out: Plant response rating (0 to 100), Pigweed)?
A: 80%

Q: And the pest or weed control at 250 g/ha (pigweed [3]; 250 g ai/ha, postemergence, read-out: Plant response rating (0 to 100), Pigweed)?
A: 95%

Q: And the pest or weed control at 31 g/ha (pigweed [3]; Postemergence, 31 g ai/ha, scale 0 to 100 (0 no effect, 100 complete control), 13 to 15 days, read-out: Plant response rating, Pigweed)?
A: 60%

Q: And the pest or weed control at 62 g/ha (pigweed [3]; Postemergence, 62 g ai/ha, scale 0 to 100 (0 no effect, 100 complete control), read-out: Plant response rating, Pigweed)?
A: 60%

Q: What about the pest or weed control at 125 g/ha (large (Lg) crabgrass [4]; 125 g ai/ha, 0 to 100 scale where 0 is no effect and 100 is complete control, read-out: Plant response rating, Crabgrass, Large) of the same compound?
A: 90%

Q: What about the pest or weed control at 500 g/ha (large (Lg) crabgrass [4]; 500 g ai/ha, 0 to 100 scale, 0 no effect, 100 complete control, read-out: Plant response rating Crabgrass, Large) of the same compound?
A: 100%

Q: And the pest or weed control at 125 g/ha (giant foxtail; 125 g ai/ha, 0 to 100 scale where 0 is no effect and 100 is complete control, read-out: Plant response rating, Foxtail, Giant)?
A: 90%

Q: And the pest or weed control at 500 g/ha (giant foxtail; 500 g ai/ha, 0 to 100 scale, 0 no effect, 100 complete control, read-out: Plant response rating Foxtail, Giant)?
A: 100%
